# Measurements from the OligoGym collection.
# Oligonucleotides are written 5' to 3', each unit as a sugar letter and its base; * is a phosphorothioate linkage, no mark a phosphodiester; rarer units and linkages stand in square brackets, end groups in braces. Plain capitals give the bases only. d = 2'-deoxy (DNA); r = 2'-OH (RNA)
# Target: UBE2I
# Assay: reporter assay of Huesken 2005
# Details: siRNA
# Further: test concentration or dose not given here.
row,Substance,normalised inhibition (eCFP-eYFP dual reporter)
1,sense rGrArGrUrGrCrGrCrCrArUrUrCrCrArGrGrArAdTdT / antisense rUrUrCrCrUrGrGrArArUrGrGrCrGrCrArCrUrCdCdC,72.6%
2,sense rCrGrArArUrGrUrGrUrArCrCrCrUrUrCrGrGrGdTdT / antisense rCrCrCrGrArArGrGrGrUrArCrArCrArUrUrCrGdGdG,45.1%
3,sense rArUrGrUrArArArUrUrCrGrArArCrCrArCrCrAdTdT / antisense rUrGrGrUrGrGrUrUrCrGrArArUrUrUrArCrArUdTdT,75%
4,sense rArGrArCrCrArCrCrCrArUrUrUrGrGrUrUrUrCdTdT / antisense rGrArArArCrCrArArArUrGrGrGrUrGrGrUrCrUdTdT,79.8%
5,sense rArUrUrUrGrGrUrUrUrCrGrUrGrGrCrUrGrUrCdTdT / antisense rGrArCrArGrCrCrArCrGrArArArCrCrArArArUdGdG,51.6%
6,sense rUrArUrUrArGrGrArArUrArCrArGrGrArArCrUdTdT / antisense rArGrUrUrCrCrUrGrUrArUrUrCrCrUrArArUrAdGdG,71.9%
7,sense rGrGrArCrArArGrGrArCrUrGrGrArGrGrCrCrAdTdT / antisense rUrGrGrCrCrUrCrCrArGrUrCrCrUrUrGrUrCrCdTdC,85.9%
8,sense rCrArCrCrCrArUrUrUrGrGrUrUrUrCrGrUrGrGdTdT / antisense rCrCrArCrGrArArArCrCrArArArUrGrGrGrUrGdGdT,85.4%
9,sense rCrUrUrCrUrArArArUrGrArArCrCrArArArUrAdTdT / antisense rUrArUrUrUrGrGrUrUrCrArUrUrUrArGrArArGdTdT,88.8%
10,sense rArGrCrCrArUrCrArCrArArUrCrArArArCrArGdTdT / antisense rCrUrGrUrUrUrGrArUrUrGrUrGrArUrGrGrCrUdGdG,60.1%
11,sense rUrUrCrArCrCrCrGrArArUrGrUrGrUrArCrCrCdTdT / antisense rGrGrGrUrArCrArCrArUrUrCrGrGrGrUrGrArAdAdT,49.6%
12,sense rUrGrArUrUrArUrCrCrArUrCrUrUrCrGrCrCrAdTdT / antisense rUrGrGrCrGrArArGrArUrGrGrArUrArArUrCrAdTdC,59%
13,sense rCrArArGrArCrCrCrArGrCrUrCrArArGrCrArGdTdT / antisense rCrUrGrCrUrUrGrArGrCrUrGrGrGrUrCrUrUrGdGdA,75.8%
14,sense rUrGrGrGrArArGrGrArGrGrCrUrUrGrUrUrUrAdTdT / antisense rUrArArArCrArArGrCrCrUrCrCrUrUrCrCrCrAdCdG,78%
15,sense rCrCrUrCrArUrGrArArCrUrGrGrGrArGrUrGrCdTdT / antisense rGrCrArCrUrCrCrCrArGrUrUrCrArUrGrArGrGdTdT,72.2%
16,sense rArUrArCrArGrGrArArCrUrUrCrUrArArArUrGdTdT / antisense rCrArUrUrUrArGrArArGrUrUrCrCrUrGrUrArUdTdC,52.1%
17,sense rArCrCrArArArArUrGrUrArArArUrUrCrGrArAdTdT / antisense rUrUrCrGrArArUrUrUrArCrArUrUrUrUrGrGrUdGdG,86.4%
18,sense rUrCrCrCrGrArUrGrGrCrArCrGrArUrGrArArCdTdT / antisense rGrUrUrCrArUrCrGrUrGrCrCrArUrCrGrGrGrAdTdT,48.8%
19,sense rUrArUrUrUrCrArCrCrCrGrArArUrGrUrGrUrAdTdT / antisense rUrArCrArCrArUrUrCrGrGrGrUrGrArArArUrAdAdT,78.9%
20,sense rCrGrArUrGrArArCrCrUrCrArUrGrArArCrUrGdTdT / antisense rCrArGrUrUrCrArUrGrArGrGrUrUrCrArUrCrGdTdG,78.2%
